The source of these data is publication PMC10412832 (Computational and Structural Biotechnology Journal, 2023).

Like-named read-outs stand apart in the source and are kept apart here. Ends that are not written are not given here.

For data set [1], the target named is recombinant SARS-CoV-2 M^pro (Severe acute respiratory syndrome coronavirus 2, UniProt P0DTD1).
For data set [2] the following is noted: ref [46]; cited from earlier work.
For data set [3] the following is noted: ref [44]; cited from earlier work.
A further data set has as its system SARS-CoV-2. The settings on record: cited from earlier work.

Take “Protegrin 2: cysteine rich potent antimicrobial peptide originally isolated from pigs; two cysteine-cysteine disulfide bridges; PDB ID 2MUH”: the “M^pro proteolytic cleavage activity” value in data set [1] is “inhibits the proteolytic cleavage activity of M^pro”. Also, in data set [2], the Toxicity result is recorded as “low toxicity”. Also, the Antimicrobial activity entry in data set [3] is recorded as “potent”.

In the case of “Protegrin 1: Source: Sus scrofa (RGGRLCYCRRRFCVCVGR; ends and bridges not checked; cysteine pairing not given here; UniProt P32194 131-148, looked up)”, the “Effect against viruses / SARS-CoV-2” value in the data set with SARS-CoV-2 (ref [36]) is “effective against viruses and a few against SARS-CoV-2”. Regarding “LL-37: Source: Homo sapiens (LLGDFFRKSKEKIGKEFKRIVQRIKDFLRNLVPRTES; Antibacterial peptide LL-37; UniProt P49913 134-170, looked up)”, the “Effect against viruses / SARS-CoV-2” value with SARS-CoV-2 (ref [36]) is “effective against viruses and a few against SARS-CoV-2”.

With “beta-defensin 1: naturally occurring antimicrobial peptide (DHYNCVSSGGQCLYSACPIFTKIQGTCYRGKAKCCK; ends and bridges not checked; cysteine pairing not given here; UniProt P60022 33-68, looked up)”, the “Effect against viruses / SARS-CoV-2” value in the data set on SARS-CoV-2 (ref [36]) is “effective against viruses and a few against SARS-CoV-2”.

B1: human defensin 5: Source: Homo sapiens (peptide, UniProt Q01523 20-94, looked up)
Defensin alpha 5: ESLQERADEATTQKQSGEDNQDLAISFAGNGLSALRTSGSQARATCYCRTGRCATRESLSGVCEISGRLYRLCCR
modifications: Defensin-5
As for B1, the “Effect against viruses / SARS-CoV-2” value with SARS-CoV-2 (ref [38], [39]) was “effective against viruses and a few against SARS-CoV-2”.
